In patent US20240409585A1, “MACROCYCLIC IMMUNOMODULATORS” (priority 2021, published 2024):
Bridge positions count the residues as written; N and C are the ends. Square brackets hold non-standard residues; d marks the D form. Peptide text beside a SMILES is read from it. * marks the point of attachment. Bip(4'-COOH) = N[C@@H](Cc1ccc(-c2ccc(C(=O)O)cc2)cc1)C(=O)O; Bip(4'-NHAc) = CC(=O)Nc1ccc(-c2ccc(C[C@H](N)C(=O)O)cc2)cc1; Phe(3-CF3) = N[C@@H](Cc1cccc(C(F)(F)F)c1)C(=O)O; Ala(morpholin-4-yl) = N[C@@H](CN1CCOCC1)C(=O)O; Phe(4-CONH2) = NC(=O)c1ccc(C[C@H](N)C(=O)O)cc1; Phe(4-COOH) = N[C@@H](Cc1ccc(C(=O)O)cc1)C(=O)O; Bip = N[C@@H](Cc1ccc(-c2ccccc2)cc1)C(=O)O; Phe(3-Me) = Cc1cccc(C[C@H](N)C(=O)O)c1; Abu(3S-NH2) = C[C@H](N)[C@H](N)C(=O)O; Val(3-OH) = CC(C)(O)[C@H](N)C(=O)O; Cha = N[C@@H](CC1CCCCC1)C(=O)O; Carboxymethyl = O=C(O)C*; NMeA = CN[C@@H](C)C(=O)O; Orn = NCCC[C@H](N)C(=O)O; Dab = NCC[C@H](N)C(=O)O

Biological target: T1, Alexa fluor-647 labeled human PD-L1-Ig binding to Jurkat cell line over-expressing human PD-1 (Homo sapiens, UniProt Q15116)
T1 construct: expressed in transfected cells; host or cells: Jurkat
T1 sequence (Q15116 25-288): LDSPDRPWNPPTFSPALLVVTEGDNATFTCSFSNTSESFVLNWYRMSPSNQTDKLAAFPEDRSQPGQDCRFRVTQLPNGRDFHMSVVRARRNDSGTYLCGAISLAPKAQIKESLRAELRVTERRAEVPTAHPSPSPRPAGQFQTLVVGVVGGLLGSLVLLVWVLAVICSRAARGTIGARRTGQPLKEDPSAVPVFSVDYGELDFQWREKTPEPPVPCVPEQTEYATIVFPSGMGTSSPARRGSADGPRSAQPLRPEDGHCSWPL
Assay: Jurkat-PD-1 Cell Binding High-Content Screening Assay (CBA): Method 3 (Alexa fluor-647 labeled PD-L1-Ig)
Conditions: Jurkat-PD-1 cells, Alexa fluor-647 labeled PD-L1-Ig 177 nM; head μM; read-out: CBA Method 3 μM
In short: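 Jurkat cells over-expressing human PD-1 in RPMI/10% FCS were preincubated 2 h at 37 °C with compound, then exposed 1 h to Alexa fluor-647 labeled human PD-L1-Ig (177 nM final). Cells fixed in 4% paraformaldehyde with Hoechst 33342 and binding quantified by high-content imaging.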

SMILES	IC50 [µM]
Cc1cccc(C[C@@H]2NC(=O)[C@H](CC(=O)O)NC(=O)[C@H](Cc3ccc(C(=O)O)cc3)NC(=O)[C@H]([C@H](C)N)NC(=O)CSC[C@@H](C(=O)N[C@@H](CCN)C(N)=O)NC(=O)[C@H](CCC(N)=O)NC(=O)[C@H](C(C)C)NC(=O)[C@H](CC3CCCCC3)NC(=O)[C@H](CCN)NC(=O)[C@@H](CC(C)C)NC(=O)[C@H](C)N(C)C(=O)[C@H](Cc3ccc(C(N)=O)cc3)NC(=O)[C@H](Cc3ccc(-c4ccccc4)cc3)NC(=O)[C@H](Cc3ccc(OCC(=O)O)cc3)NC2=O)c1 [Example 5119] ({CH2CO}-[Abu(3S-NH2)][Phe(4-COOH)]D[Phe(3-Me)]Y(Carboxymethyl)[Bip][Phe(4-CONH2)][NMeA][dL][Dab][Cha]VQC[Dab]-NH2; thioether N-14)	0.02
Cc1cccc(C[C@@H]2NC(=O)[C@H](CC(=O)O)NC(=O)[C@H](Cc3ccc(-c4ccc(C(=O)O)cc4)cc3)NC(=O)[C@H](C)NC(=O)CSC[C@@H](C(=O)N[C@@H](CCN)C(N)=O)NC(=O)[C@H](CO)NC(=O)[C@H](C(C)(C)O)NC(=O)[C@H](CC3CCCCC3)NC(=O)[C@H](Cc3cnc[nH]3)NC(=O)[C@@H](CC(C)C)NC(=O)[C@H](C)N(C)C(=O)[C@H](Cc3ccc(C(=O)O)cc3)NC(=O)[C@H](Cc3ccc(-c4ccccc4)cc3)NC(=O)[C@H](Cc3ccc(-c4ccc(C(=O)O)cc4)cc3)NC2=O)c1 [Example 5121] ({CH2CO}-A[Bip(4'-COOH)]D[Phe(3-Me)][Bip(4'-COOH)][Bip][Phe(4-COOH)][NMeA][dL]H[Cha][Val(3-OH)]SC[Dab]-NH2; thioether N-14)	0.07
Cc1cccc(C[C@@H]2NC(=O)[C@H](CC(=O)O)NC(=O)[C@H](Cc3ccc(-c4ccc(C(=O)O)cc4)cc3)NC(=O)[C@H](CN3CCOCC3)NC(=O)CSC[C@@H](C(=O)N[C@@H](CCN)C(N)=O)NC(=O)[C@H](CO)NC(=O)[C@H](C(C)(C)O)NC(=O)[C@H](CC3CCCCC3)NC(=O)[C@H](Cc3cnc[nH]3)NC(=O)[C@@H](CC(C)C)NC(=O)[C@H](C)N(C)C(=O)[C@H](Cc3ccc(C(=O)O)cc3)NC(=O)[C@H](Cc3ccc(-c4ccccc4)cc3)NC(=O)[C@H](Cc3ccc(-c4ccc(C(=O)O)cc4)cc3)NC2=O)c1 [Example 5122] ({CH2CO}-[Ala(morpholin-4-yl)][Bip(4'-COOH)]D[Phe(3-Me)][Bip(4'-COOH)][Bip][Phe(4-COOH)][NMeA][dL]H[Cha][Val(3-OH)]SC[Dab]-NH2; thioether N-14)	0.11

The remaining lines, values ahead:

IC50 [µM]	SMILES
0.02	CC(=O)Nc1ccc(-c2ccc(C[C@@H]3NC(=O)[C@H](Cc4cccc(C)c4)NC(=O)[C@H](CC(=O)O)NC(=O)[C@H](Cc4ccc(-c5ccc(C(=O)O)cc5)cc4)NC(=O)[C@H](CN4CCOCC4)NC(=O)CSC[C@@H](C(=O)N[C@@H](CCN)C(N)=O)NC(=O)[C@H](CCC(=O)O)NC(=O)[C@H](C(C)C)NC(=O)[C@H](CC4CCCCC4)NC(=O)[C@H](CC(N)=O)NC(=O)[C@@H](CC(C)C)NC(=O)[C@H](C)N(C)C(=O)[C@H](Cc4ccc(OCC(=O)O)cc4)NC(=O)[C@H](Cc4ccc(-c5ccccc5)cc4)NC3=O)cc2)cc1 [Example 5127] ({CH2CO}-[Ala(morpholin-4-yl)][Bip(4'-COOH)]D[Phe(3-Me)][Bip(4'-NHAc)][Bip]Y(Carboxymethyl)[NMeA][dL]N[Cha]VEC[Dab]-NH2; thioether N-14)
0.03	Cc1cccc(C[C@@H]2NC(=O)[C@H](CC(=O)O)NC(=O)[C@H](Cc3ccc(-c4ccc(C(=O)O)cc4)cc3)NC(=O)[C@H](CN3CCOCC3)NC(=O)CSC[C@@H](C(=O)N[C@@H](CCN)C(N)=O)NC(=O)[C@H](CCC(=O)O)NC(=O)[C@H](C(C)C)NC(=O)[C@H](CC3CCCCC3)NC(=O)[C@H](CC(N)=O)NC(=O)[C@@H](CC(C)C)NC(=O)[C@H](C)N(C)C(=O)[C@H](Cc3ccc(OCC(=O)O)cc3)NC(=O)[C@H](Cc3ccc(-c4ccccc4)cc3)NC(=O)[C@H](Cc3ccc(-c4ccc(C(=O)O)cc4)cc3)NC2=O)c1 [Example 5128] ({CH2CO}-[Ala(morpholin-4-yl)][Bip(4'-COOH)]D[Phe(3-Me)][Bip(4'-COOH)][Bip]Y(Carboxymethyl)[NMeA][dL]N[Cha]VEC[Dab]-NH2; thioether N-14)
0.03	CC(=O)Nc1ccc(-c2ccc(C[C@@H]3NC(=O)[C@H](Cc4cccc(C)c4)NC(=O)[C@H](CC(=O)O)NC(=O)[C@H](Cc4ccc(-c5ccc(C(=O)O)cc5)cc4)NC(=O)[C@H](CN4CCOCC4)NC(=O)CSC[C@@H](C(=O)N[C@@H](CCN)C(N)=O)NC(=O)[C@H](CO)NC(=O)[C@H](C(C)(C)O)NC(=O)[C@H](CC4CCCCC4)NC(=O)[C@H](CC(N)=O)NC(=O)[C@@H](CC(C)C)NC(=O)[C@H](C)N(C)C(=O)[C@H](Cc4ccc(OCC(=O)O)cc4)NC(=O)[C@H](Cc4ccc(-c5ccccc5)cc4)NC3=O)cc2)cc1 [Example 5129] ({CH2CO}-[Ala(morpholin-4-yl)][Bip(4'-COOH)]D[Phe(3-Me)][Bip(4'-NHAc)][Bip]Y(Carboxymethyl)[NMeA][dL]N[Cha][Val(3-OH)]SC[Dab]-NH2; thioether N-14)
0.06	Cc1cccc(C[C@@H]2NC(=O)[C@H](CC(=O)O)NC(=O)[C@H](Cc3ccc(-c4ccc(C(=O)O)cc4)cc3)NC(=O)[C@H](CN3CCOCC3)NC(=O)CSC[C@@H](C(=O)N[C@@H](CCN)C(N)=O)NC(=O)[C@H](CO)NC(=O)[C@H](C(C)(C)O)NC(=O)[C@H](CC3CCCCC3)NC(=O)[C@H](CC(N)=O)NC(=O)[C@@H](CC(C)C)NC(=O)[C@H](C)N(C)C(=O)[C@H](Cc3ccc(OCC(=O)O)cc3)NC(=O)[C@H](Cc3ccc(-c4ccccc4)cc3)NC(=O)[C@H](Cc3ccc(-c4ccc(C(=O)O)cc4)cc3)NC2=O)c1 [Example 5130] ({CH2CO}-[Ala(morpholin-4-yl)][Bip(4'-COOH)]D[Phe(3-Me)][Bip(4'-COOH)][Bip]Y(Carboxymethyl)[NMeA][dL]N[Cha][Val(3-OH)]SC[Dab]-NH2; thioether N-14)

Same assay, conditions: Jurkat-PD-1 cells, Alexa fluor-647 labeled PD-L1-Ig 177 nM; nM; read-out: CBA Method 3

IC50 [µM]	SMILES
0.0056	CC(C)C[C@H]1NC(=O)[C@H](C)N(C)C(=O)[C@H](CCCN)NC(=O)[C@H](Cc2ccc(-c3ccccc3)cc2)NC(=O)[C@H](Cc2ccc(-c3ccc(C(=O)O)cc3)cc2)NC(=O)[C@H](Cc2cccc(C(F)(F)F)c2)NC(=O)[C@H](CC(=O)O)NC(=O)[C@H](Cc2ccc(-c3ccc(C(=O)O)cc3)cc2)NC(=O)[C@H](Cc2ccc(OCC(=O)O)cc2)NC(=O)CSC[C@@H](C(=O)N[C@@H](CCN)C(N)=O)NC(=O)[C@H](CCC(N)=O)NC(=O)[C@H](C(C)C)NC(=O)[C@H](CC2CCCCC2)NC(=O)[C@H](CCN)NC1=O [Example 5120] ({CH2CO}-Y(Carboxymethyl)[Bip(4'-COOH)]D[Phe(3-CF3)][Bip(4'-COOH)][Bip][Orn][NMeA][dL][Dab][Cha]VQC[Dab]-NH2; thioether N-14)
0.0094	CC(=O)Nc1ccc(-c2ccc(C[C@@H]3NC(=O)[C@H](Cc4cccc(C)c4)NC(=O)[C@H](CC(=O)O)NC(=O)[C@H](Cc4ccc(-c5ccc(C(=O)O)cc5)cc4)NC(=O)[C@H](CN4CCOCC4)NC(=O)CSC[C@@H](C(=O)N[C@@H](CCN)C(N)=O)NC(=O)[C@H](CO)NC(=O)[C@H](C(C)(C)O)NC(=O)[C@H](CC4CCCCC4)NC(=O)[C@H](Cc4cnc[nH]4)NC(=O)[C@@H](CC(C)C)NC(=O)[C@H](C)N(C)C(=O)[C@H](Cc4ccc(C(=O)O)cc4)NC(=O)[C@H](Cc4ccc(-c5ccccc5)cc4)NC3=O)cc2)cc1 [Example 5123] ({CH2CO}-[Ala(morpholin-4-yl)][Bip(4'-COOH)]D[Phe(3-Me)][Bip(4'-NHAc)][Bip][Phe(4-COOH)][NMeA][dL]H[Cha][Val(3-OH)]SC[Dab]-NH2; thioether N-14)
0.0026	CC(C)C[C@@H]1NC(=O)[C@H](Cc2c[nH]c3ccccc23)NC(=O)[C@H](CC(=O)O)NC(=O)[C@H](Cc2ccc(-c3ccc(C(=O)O)cc3)cc2)NC(=O)[C@H](CN2CCOCC2)NC(=O)CSC[C@@H](C(=O)N[C@@H](CCN)C(N)=O)NC(=O)[C@H](CCC(=O)O)NC(=O)[C@H](C(C)C)NC(=O)[C@H](CC(C)C)NC(=O)[C@H](CC(N)=O)NC(=O)[C@@H](CC(C)C)NC(=O)[C@H](C)N(C)C(=O)[C@H](C(C)C)NC(=O)[C@H](Cc2ccc(-c3ccccc3)cc2)NC1=O [Example 5124] ({CH2CO}-[Ala(morpholin-4-yl)][Bip(4'-COOH)]DWL[Bip]V[NMeA][dL]NLVEC[Dab]-NH2; thioether N-14)
0.0094	Cc1cccc(C[C@@H]2NC(=O)[C@H](CC(=O)O)NC(=O)[C@H](Cc3ccc(-c4ccc(C(=O)O)cc4)cc3)NC(=O)[C@H](CN3CCOCC3)NC(=O)CSC[C@@H](C(=O)N[C@@H](CCN)C(N)=O)NC(=O)[C@H](CCC(=O)O)NC(=O)[C@H](C(C)C)NC(=O)[C@H](CC(C)C)NC(=O)[C@H](CC(N)=O)NC(=O)[C@@H](CC(C)C)NC(=O)[C@H](C)N(C)C(=O)[C@H](C(C)C)NC(=O)[C@H](Cc3ccc(-c4ccccc4)cc3)NC(=O)[C@H](CC(C)C)NC2=O)c1 [Example 5125] ({CH2CO}-[Ala(morpholin-4-yl)][Bip(4'-COOH)]D[Phe(3-Me)]L[Bip]V[NMeA][dL]NLVEC[Dab]-NH2; thioether N-14)
0.0032	Cc1cccc(C[C@@H]2NC(=O)[C@H](CC(=O)O)NC(=O)[C@H](Cc3ccc(-c4ccc(C(=O)O)cc4)cc3)NC(=O)[C@H](CN3CCOCC3)NC(=O)CSC[C@@H](C(=O)N[C@@H](CCN)C(N)=O)NC(=O)[C@H](CCC(=O)O)NC(=O)[C@H](C(C)(C)O)NC(=O)[C@H](CC(C)C)NC(=O)[C@H](CC(N)=O)NC(=O)[C@@H](CC(C)C)NC(=O)[C@H](C)N(C)C(=O)[C@H](C(C)C)NC(=O)[C@H](Cc3ccc(-c4ccccc4)cc3)NC(=O)[C@H](CC(C)C)NC2=O)c1 [Example 5126] ({CH2CO}-[Ala(morpholin-4-yl)][Bip(4'-COOH)]D[Phe(3-Me)]L[Bip]V[NMeA][dL]NL[Val(3-OH)]EC[Dab]-NH2; thioether N-14)
